Laboratory results reported in PMC3969711 (Chembiochem : a European journal of chemical biology, 2014).
Values joined by “and” are separate entries in the source; they are usually repeats but may differ in a detail not shown here. Identical values can stand only once. Like-named read-outs stand apart in the source and are kept apart here.

Legend:
LasR [1] = biological target: T1, LasR (Pseudomonas aeruginosa, UniProt P25084); type: cell-based, P. aeruginosa; conditions: for Fold change of IC50: IC50 in PAO-JP2 vs PAO-JG21
T1 sequence (P25084 whole entry): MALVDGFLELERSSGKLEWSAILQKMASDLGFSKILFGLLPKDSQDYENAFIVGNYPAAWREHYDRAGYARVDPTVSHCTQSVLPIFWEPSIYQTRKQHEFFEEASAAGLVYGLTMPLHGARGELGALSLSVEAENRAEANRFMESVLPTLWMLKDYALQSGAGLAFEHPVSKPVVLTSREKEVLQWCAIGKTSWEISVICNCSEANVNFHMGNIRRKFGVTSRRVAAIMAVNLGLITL

LasR [2] = biological target: T1, LasR; assay: LasR competitive antagonism reporter assay in pump-mutant PAO-JG21; type: cell-based, P. aeruginosa; conditions: PAO-JG21, 25 µg/mL PAβN
LasR [3] = biological target: T1, LasR; conditions: in P. aeruginosa, related reporter constructs; cited from earlier work
LasR [4] = biological target: T1, LasR; conditions: in E. coli, related reporter constructs; cited from earlier work
wild-type P. aeruginosa = conditions: cited from earlier work

Row | Compound | Fold change of IC50 (LasR [1]) | effect of pump inhibitor PAβN on LasR inhibitory potency (LasR [1]; PAO-JP2, 25 µg/mL PAβN) | maximum inhibition of LasR activity (LasR [1]; PAO-JP2 harboring plasI-LVAgfp, dose-response (Figure S-14)) | effect of pump inhibitor PAβN on LasR inhibitory potency (LasR [2]) | inhibition of LasR activity (LasR [3]) | inhibition of LasR activity (LasR [4]) | inhibition of pyocyanin production (wild-type P. aeruginosa)
1 | Cc1cc2nc(N)[nH]c2cc1C [DMABI, 5,6-dimethyl-2-aminobenzimidazole] | 1.6 | no effect | ~ 40% and 40% | no effect | – | – | –
2 | CCCCCCCCCC(=O)CC(=O)Nc1ccccc1 [3-oxo-C12-aniline] | 6.5 | – | – | – | 30% | 55% | strongly inhibiting pyocyanin production
